Tests used:
Type in all cases: biochemical, Gluconobacter oxydans UV-10
[1] = biological target: T1, L-sorbose dehydrogenase (Gluconobacter oxydans, UniProt Q47944); assay: Effect of metal ions on the enzyme activity; settings: for Effect of metal ion on the enzyme activity (in words): summary of Table 6
Experimental: (§1) Enzyme assay was performed at 25° C. by measuring the decrease of absorbance at 600 nm of DCIP spectrophotometrically. One unit of enzyme activity was defined as the amount of enzyme which catalyzed the reduction of 1 μmole of DCIP per minute. The extinction coefficient of DCIP at pH 7.0 was taken as 14.5 mM^-1. The basal reaction mixture is shown below. The mixture was prepared just before the assay.
(§2) A cuvette with 1 cm light path contained 0.4 ml of basal mixture, 0.1 ml of 1M L-sorbose, enzyme solution, and water in a final volume of 0.51 ml. A reference cuvette contains all components except the substrate. The reaction was initiated by the addition of the substrate. Enzyme activity was measured as the initial reduction rate of DCIP.
Using the assay procedure described under (1) above, the effect of various metal ions on the enzyme activity was examined. Co^2+ and Fe^3+ were stimulative and Cu^2+ was inhibitory.

[2] = biological target: T1, L-sorbose dehydrogenase; assay: Measurement of the Km value for L-sorbose; settings: L-sorbose 0.5 mM to 320 mM
Experimental: as §1, §2
In the procedure described under (2) above, the velocities of oxidising reactions with varying concentrations of L-sorbose from 0.5 mM to 320 mM were measured to determine the Km value for L-sorbose. The maximum reaction velocity was found at the substrate concentration of about 200 mM. Apparent Michaelis constant (Km) was calculated to be 102±10 mM with DCIP as an electron acceptor.

[3] = biological target: T1, L-sorbose dehydrogenase; assay: biochemical; settings: for Effect of inhibitor on the enzyme activity (in words): summary of Table 7
Experimental: as §1, with “The extinction coefficient of DCIP at pH 7.0 was taken as 14.5 mM^-1.” left out
as §2

[4] = biological target: T1, L-sorbose dehydrogenase; settings: 0.1 ml of 1M substrate solution instead of L-sorbose, DCIP, 25° C., pH 7.0
Experimental: as §1, §2
Substrate specificity of the enzyme was determined using the same enzyme assay method as described in the above (1) except that 0.1 ml of each of the various substrate solutions (1M) was used instead of L-sorbose.

T1 sequence (Q47944 whole entry): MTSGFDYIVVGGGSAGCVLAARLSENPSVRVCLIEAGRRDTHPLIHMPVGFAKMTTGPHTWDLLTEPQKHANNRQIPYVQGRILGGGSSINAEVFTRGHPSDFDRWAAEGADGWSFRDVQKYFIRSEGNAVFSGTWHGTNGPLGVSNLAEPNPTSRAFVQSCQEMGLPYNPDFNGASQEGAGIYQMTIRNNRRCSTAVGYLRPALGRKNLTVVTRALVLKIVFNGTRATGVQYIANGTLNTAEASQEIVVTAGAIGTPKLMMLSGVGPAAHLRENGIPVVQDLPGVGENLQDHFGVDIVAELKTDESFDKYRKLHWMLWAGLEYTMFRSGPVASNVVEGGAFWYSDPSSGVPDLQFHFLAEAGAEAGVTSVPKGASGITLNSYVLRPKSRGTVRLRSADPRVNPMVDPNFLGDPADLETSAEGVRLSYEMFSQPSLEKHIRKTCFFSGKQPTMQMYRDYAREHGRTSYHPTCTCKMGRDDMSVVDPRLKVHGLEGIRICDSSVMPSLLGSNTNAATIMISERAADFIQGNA

Fe(SO4)3 .multidot. xH2 O
Relative activity (%) ([1]; metal 0.4 mM): 121.3%
Relative activity (%) ([1]; metal 0.9 mM): 106.4%

O.O.O.O.O.O.O.O=S(=O)([O-])[O-].[Zn+2] [ZnSO4 · 7H2 O]
Relative activity (%) ([1]; metal 0.4 mM): 100%
Relative activity (%) ([1]; metal 0.9 mM): 100%

O=C(CO)[C@@H](O)[C@H](O)[C@@H](O)CO [Sorbose, L-sorbose]
Substrate concentration of maximum reaction velocity [2]: about 200 mM

[Fe+3] [Fe^3+]
Effect of metal ion on the enzyme activity (in words) [1]: stimulative

O.O.O.O.O.O=S(=O)([O-])[O-].[Cu+2] [CuSO4 · 5H2 O]
Relative activity (%) ([1]; metal 0.08 mM): 30.9%

[Ca+2].[Cl-].[Cl-] [CaCl2]
Relative activity (%) ([1]; metal 0.4 mM): 100%
Relative activity (%) ([1]; metal 0.8 mM): 100%

C=C[C@H]1C[N@@]2CC[C@H]1C[C@H]2[C@H](O)c1ccnc2ccc(OC)cc12 [Quinine]
inhibition at 1850 µM [3]: 0%
inhibition at 4240 µM [3]: 30.5%
Effect of inhibitor on the enzyme activity (in words) [3]: inhibited the enzyme activity partially

O=C(O)CN(CCN(CC(=O)O)CC(=O)O)CC(=O)O [EDTA]
inhibition at 940 µM [3]: 0%
inhibition at 5200 µM [3]: 13.3%

O.O.O.O.O.O.[Cl-].[Cl-].[Co+2] [CoC1 · 6H2O]
Relative activity (%) ([1]; metal 0.4 mM): 109.2%
Relative activity (%) ([1]; metal 0.8 mM): 118.4%

O.O.O.O.O.O.[Cl-].[Cl-].[Mg+2] [MgCl2 · 6H2 O]
Relative activity (%) ([1]; metal 0.8 mM): 83.3%

O.O=[N+]([O-])[O-].O=[N+]([O-])[O-].[Cu+2] [Cu(NO3)2 · H2 O]
Relative activity (%) ([1]; metal 0.3 mM): 2.27%

O=C(O)CI [Mono-Iodo acetate]
inhibition at 1850 µM [3]: 0%
inhibition at 4240 µM [3]: 34.6%
inhibition at 9370 µM [3]: 68.5%
Effect of inhibitor on the enzyme activity (in words) [3]: inhibited the enzyme activity partially

O.O.O.O.[Cl][Mn][Cl] [MnCl2 · 4H2 O]
Relative activity (%) ([1]; metal 0.4 mM): 100%
Relative activity (%) ([1]; metal 0.9 mM): 98.3%

CCN1C(=O)C=CC1=O [N-Ethyl-maleimide]
inhibition at 1850 µM [3]: 0%
inhibition at 4240 µM [3]: 0%

O.O.O.O.O.O.O.O=S(=O)([O-])[O-].[Mg+2] [MgSO4 · 7H2 O]
Relative activity (%) ([1]; metal 0.4 mM): 100%
Relative activity (%) ([1]; metal 0.8 mM): 100%

O=C(O)CF [Sodium Fluoro acetate]
inhibition at 1850 µM [3]: 0%
inhibition at 4240 µM [3]: 8.6%
inhibition at 9370 µM [3]: 26.5%
Effect of inhibitor on the enzyme activity (in words) [3]: inhibited the enzyme activity partially

O.O.O.O.O.O.O.O=[As]([O-])([O-])O.[Na+].[Na+] [Na2 HAs · O4 · 7H2 O]
Inhibition (%) ([3]; inhibitor 1.85 mM): 0%
Inhibition (%) ([3]; inhibitor 4.24 mM): 0%

O.O.O.O.O.O.O=S(=O)([O-])[O-].[Ni+2] [NiSO4 · 6H2 O]
Relative activity (%) ([1]; metal 0.4 mM): 100%
Relative activity (%) ([1]; metal 0.9 mM): 100%

O.O.[Na+].[Na+].[O]=[Mo](=[O])([O-])[O-] [Na2 MoO4 · 2H2 O]
Relative activity (%) ([1]; metal 0.3 mM): 86.1%
Relative activity (%) ([1]; metal 1.06 mM): 69.6%

TiCl
Relative activity (%) ([1]; metal 0.4 mM): 100%
Relative activity (%) ([1]; metal 0.8 mM): 100%
Relative activity (%) ([1]; metal 1.8 mM): 100%

O=C([O-])[C@@H](O)[C@H](O)[C@@H](O)[C@H](O)CO.O=C([O-])[C@@H](O)[C@H](O)[C@@H](O)[C@H](O)CO.[Ca+2] [Ca-Idonate]
Relative enzyme activity (%) [4]: 0%

[F-].[Na+] [Sodium Fluoride]
Inhibition (%) ([3]; inhibitor 1.85 mM): 10.3%
Inhibition (%) ([3]; inhibitor 4.24 mM): 10.3%
Inhibition (%) ([3]; inhibitor 9.37 mM): 22.1%
Effect of inhibitor on the enzyme activity (in words) [3]: inhibited the enzyme activity partially

O=S(=O)([O-])[O-].[Cu+2] [CuSO4]
Relative activity (%) ([1]; metal 0.8 mM): 0%

O.O=S(=O)([O-])[O-].[Mn+2] [MnSO4 · H2 O]
Relative activity (%) ([1]; metal 0.4 mM): 100%

[N-]=[N+]=[N-] [Sodium Azide]
inhibition at 1850 µM [3]: 0%
inhibition at 4240 µM [3]: 0%

O=C(O)c1cc[c]([Hg][Cl])cc1 [PCMB, p-chloro-mercuri-benzoate]
Inhibition (%) ([3]; inhibitor 0.02 mM): 0%
Inhibition (%) ([3]; inhibitor 0.04 mM): 0%
Inhibition (%) ([3]; inhibitor 0.17 mM): 0%

[Cu+2] [Cu^2+]
Effect of metal ion on the enzyme activity (in words) [1]: inhibitory

[Co+2] [Co^2+]
Effect of metal ion on the enzyme activity (in words) [1]: stimulative

O.O.[Cl][Cu][Cl] [CuCl2 · 2H2 O]
Relative activity (%) ([1]; metal 0.4 mM): 0%
